The values below come from PubChem BioAssay (NCI).

The structures appear in SMILES notation.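 How tested: cells in 96-well plates exposed to compound for 48 hours at five concentrations. GI50 = concentration required for 50% inhibition of growth. TGI: total growth inhibition.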 Bounds are passed on as bounds.

Among the test systems are U251 CNS; MDA-MB-231 breast; CAKI-1 renal; SR leukemia; OVCAR-3 ovarian; SW-620 colon; SK-MEL-28 melanoma; ACHN renal; M14 melanoma; T-47D breast.
Test in all cases: NCI anticancer screen, dose series, 48 h

Regarding `O=C(/C=C/c1cccc2ccccc12)Nc1ncc(Cc2ccccc2)s1`, the GI50 with U251 CNS was 0.818 µM; in the test with MDA-MB-231 breast, 2 µM; in the test on CAKI-1 renal, 0.609 µM; in the test on SR leukemia, 0.866 µM; in the test on OVCAR-3 ovarian, 0.738 µM; in the test with SW-620 colon it was 0.737 µM. Also, the GI50 in the test on SK-MEL-28 melanoma is 3.89 µM; in the test with ACHN renal, 1.95 µM; with M14 melanoma, 0.649 µM; with T-47D breast, 0.894 µM. Moreover, the TGI is 4.67 µM with U251 CNS; over 40.3 µM in the test with MDA-MB-231 breast; 3.71 µM with CAKI-1 renal; over 100 µM in the test on SR leukemia; 3.22 µM in the test with OVCAR-3 ovarian; over 100 µM with SW-620 colon. Besides, the TGI with SK-MEL-28 melanoma is over 100 µM; with ACHN renal, 6.02 µM; in the test on M14 melanoma, 3.79 µM; in the test on T-47D breast it was over 100 µM.
In the case of `CCN(CC)Cc1cc(Nc2c3ccccc3nc3cc(Cl)ccc23)ccc1O`, the GI50 with U251 CNS was 1.39 µM; with MDA-MB-231 breast, 1.73 µM; with CAKI-1 renal it was 1.87 µM; in the test with SR leukemia, 3.08 µM; with OVCAR-3 ovarian it was 1.74 µM; in the test on SW-620 colon, 1.18 µM. Further, the GI50 with SK-MEL-28 melanoma was 1.79 µM; in the test on ACHN renal it was 1.47 µM; in the test on M14 melanoma, 1.76 µM; with T-47D breast, 1.97 µM. Besides, the TGI is 2.89 µM in the test with U251 CNS; 3.59 µM with MDA-MB-231 breast; 4.73 µM in the test with CAKI-1 renal; over 100 µM in the test on SR leukemia; 3.28 µM in the test on OVCAR-3 ovarian; 3.63 µM in the test on SW-620 colon. Besides, the TGI in the test on SK-MEL-28 melanoma is 3.2 µM; in the test on ACHN renal it was 2.97 µM; in the test on M14 melanoma, 3.18 µM; with T-47D breast it was 4 µM.
With `Cc1cc(Br)cc(C)c1NC(=O)C(=O)Nn1c(=S)[nH]c2ccccc2c1=O`, the TGI in the test with U251 CNS, with MDA-MB-231 breast, with CAKI-1 renal, with SR leukemia, in the test on OVCAR-3 ovarian and in the test with SW-620 colon was over 100 µM each time. The TGI in the test with SK-MEL-28 melanoma, in the test on ACHN renal, with M14 melanoma and with T-47D breast was over 100 µM each time.
On to `Nc1ccn(C2OC(C(OC3OC(CO)C(O)C(N)C3O)C(O)C(O)C(O)C(O)CO)C(N)C(O)C2O)c(=O)n1` (stereo not given), for which the TGI in the test with U251 CNS is over 100 µM; in the test on MDA-MB-231 breast, 41.1 µM; in the test with CAKI-1 renal it was over 100 µM; in the test with SR leukemia, over 100 µM; with OVCAR-3 ovarian, 86.6 µM; in the test on SW-620 colon, over 100 µM. In addition, the TGI in the test with SK-MEL-28 melanoma, in the test on ACHN renal, in the test with M14 melanoma and with T-47D breast was over 100 µM in each case.
